# Measurements as given in patent US7754795B2, “Coating composition” (3M Innovative Properties Company, priority 2006, dated 2010).
# Marks after values point to notes of the source that are not given here.
# Experiment: Determination of bio-accumulation: urinary clearance pharmacokinetic study in rats, with observation for toxicity and gross necropsy
# Assay type: in vivo, male Sprague Dawley rats
# Conditions: rat, oral gavage
# Experimental: The perfluorinated and partially fluorinated carboxylates were evaluated for urinary clearance using a pharmacokinetic study in rats. The goal was to measure the total amount of parent compound eliminated via urinary output and estimate the rate of elimination. The study was approved by the IACUC (Institutional Animal Care and Use Committees) and was performed in 3M Company's AAALAC (Association for Assessment and Accreditation of Laboratory Animal Care)-accredited facility.
# The study utilized male Sprague Dawley rats, 6 to 8 weeks of age, and approximately 200 to 250 g body weight at study onset. The test compounds of table 2 were administered at a dose of 73 micro Moles per kg body weight in rats (N=3 animals per tested compound). All test compounds were prepared in sterile deionized water and given to rats via oral gavage. After test compounds administration, the rats were housed individually in metabolism cages for urine collection: 0 to 6 hours, 6 to 24 hours, 24 to 48 hours and […]. Animals were observed throughout the study for clinical signs of toxicity. Gross necropsy was performed at the termination of each study (96 hours post-dose) with sera and liver samples being retained from each animal.
# The concentration of the parent compound or metabolites thereof were quantitatively measured via fluorine NMR on each urine sample for each animal at each time point based on internally added standards.
# [1] = 73 micro Moles per kg, no parent compound observed in the urine
SMILES,"T½ (73 micro Moles per kg body weight, parent compound in urine by fluorine NMR, exponential least squares curve fitting) [h]","% Recovery (96 h), based on elimination of the major metabolite C3F7—O—CHFCOO− [1]","T½ (h), based on elimination of the major metabolite C3F7—O—CHFCOO− [1]"
"N.O=C(O)C(F)(F)OC(F)(F)C(F)(F)C(F)(F)OC(F)(F)F [Compound 1, CF3—O—(CF2)3—O—CF2—COONH4]",10,–,–
"N.O=C(O)COC(F)(F)C(F)OC(F)(F)C(F)(F)C(F)(F)F (stereo not drawn) [Compound 16, C3F7—O—CFH—CF2—O—CH2—COONH4]",–,65* %,13* h
